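At the GI50, growth is halved. At the TGI there is no net growth.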
Tests used:
Experiment in all cases: NCI anticancer screen, dose series, 384-well format; in the data active = GI50 below about 0.43 µM; inactive = the rest
[1] = system: SN12C renal
[2] = system: SW-620 colon
[3] = system: PC-3 prostate
[4] = system: NCI-H322M lung
[5] = system: SF-539 CNS
[6] = system: DU-145 prostate
[7] = system: M14 melanoma
[8] = system: HOP-92 NSCLC
[9] = system: NCI-H226 lung
[10] = system: CAKI-1 renal
[11] = system: UACC-257 melanoma
[12] = system: OVCAR-5 ovarian
[13] = system: OVCAR-4 ovarian
[14] = system: SK-MEL-28 melanoma
[15] = system: BT-549 breast
[16] = system: A549 NSCLC
[17] = system: NCI/ADR-RES ovarian
[18] = system: HOP-62 NSCLC
[19] = system: RXF 393 renal
[20] = system: MDA-MB-231 breast
[21] = system: MCF7 breast
[22] = system: HL-60(TB) leukemia
[23] = system: HCC-2998 colon
[24] = system: COLO 205 colon
[25] = system: UACC-62 melanoma
[26] = system: EKVX NSCLC
[27] = system: NCI-H460 NSCLC
[28] = system: SNB-19 CNS
[29] = system: KM12 colon
[30] = system: ACHN renal
[31] = system: 786-0 renal
[32] = system: HS 578T breast
[33] = system: OVCAR-3 ovarian
[34] = system: MDA-MB-468 breast
[35] = system: SNB-75 CNS
[36] = system: SK-MEL-5 melanoma
[37] = system: U251 glioblastoma
[38] = system: TK-10 renal
[39] = system: MALME-3M melanoma
[40] = system: OVCAR-8 ovarian
[41] = system: MDA-MB-435 melanoma
[42] = system: A498 renal
[43] = system: NCI-H522 lung
[44] = system: LOX IMVI melanoma
[45] = system: T-47D breast
[46] = system: IGROV1 ovarian
[47] = system: SF-295 CNS
[48] = system: CCRF-CEM leukemia
[49] = system: HCT-15 colon
[50] = system: SK-OV-3 ovarian
[51] = system: MOLT-4 leukemia
[52] = system: RPMI-8226 leukemia
[53] = system: SF-268 CNS
[54] = system: HCT-116 colon
[55] = system: SR leukemia
[56] = system: NCI-H23 lung
[57] = system: UO-31 renal
[58] = system: HT29 colon
[59] = system: K-562 leukemia
[60] = system: SK-MEL-2 melanoma

Cc1cnc(Nc2ccc(OCCN3CCCC3)cc2)nc1Nc1cccc(S(=O)(=O)NC(C)(C)C)c1
1780 nM: TGI [52]
1840 nM: TGI [50]
2350 nM: TGI [20]
5550 nM: TGI [29]
3350 nM: TGI [56]
2630 nM: TGI [36]
1710 nM: TGI [10]
2650 nM: TGI [46]
3650 nM: TGI [13]
2220 nM: TGI [8]
1660 nM: TGI [19]
inactive: GI50 [1] 1540 nM | GI50 [2] 1570 nM | GI50 [3] 1440 nM | GI50 [4] 1240 nM | GI50 [5] 1510 nM | GI50 [6] 1080 nM | GI50 [7] 1020 nM | GI50 [8] 1020 nM | GI50 [9] 740 nM | GI50 [10] 593 nM | GI50 [11] 1730 nM | GI50 [12] 1670 nM | GI50 [13] 1600 nM | GI50 [14] 3610 nM | GI50 [15] 1620 nM | GI50 [16] 1370 nM | GI50 [17] 6430 nM | GI50 [18] 2000 nM | GI50 [19] 707 nM | GI50 [20] 1060 nM | GI50 [21] 1160 nM | GI50 [22] 464 nM | GI50 [23] 1390 nM | GI50 [24] 1820 nM | GI50 [25] 1000 nM | GI50 [26] 1770 nM | GI50 [27] 1880 nM | GI50 [28] 2970 nM | GI50 [30] 1300 nM | GI50 [31] 1270 nM | GI50 [32] 837 nM | GI50 [33] 1270 nM | GI50 [34] 1200 nM | GI50 [35] 869 nM | GI50 [36] 1320 nM | GI50 [37] 2570 nM | GI50 [38] 1550 nM | GI50 [39] 1450 nM | GI50 [40] 1540 nM | GI50 [41] 2610 nM | GI50 [42] 909 nM | GI50 [43] 523 nM | GI50 [44] 815 nM | GI50 [45] 1780 nM | GI50 [46] 1080 nM | GI50 [47] 2740 nM | GI50 [48] 1400 nM | GI50 [49] 1660 nM | GI50 [50] 604 nM | GI50 [51] 428 nM | GI50 [52] 624 nM | GI50 [53] 1900 nM | GI50 [54] 635 nM | GI50 [56] 1450 nM | GI50 [57] 1770 nM | GI50 [58] 1420 nM
3120 nM: TGI [11]
3190 nM: TGI [38]
2730 nM: TGI [16]
1340 nM: TGI [22]
4310 nM: TGI [49]
5630 nM: TGI [12]
4510 nM: TGI [33]
3040 nM: TGI [39]
3010 nM: TGI [15]
2860 nM: TGI [5] | TGI [23]
11600 nM: TGI [14] | TGI [41]
4870 nM: TGI [18]
18300 nM: TGI [17]
8680 nM: TGI [3]
2500 nM: TGI [7]
4220 nM: TGI [53]
4490 nM: TGI [1]
2160 nM: TGI [35]
3170 nM: TGI [57]
12400 nM: TGI [37]
3280 nM: TGI [24]
1360 nM: TGI [55]
active: GI50 [29] 418 nM | GI50 [55] 372 nM
2670 nM: TGI [25]
3640 nM: TGI [2]
8890 nM: TGI [28]
2270 nM: TGI [32]
8670 nM: TGI [47]
2050 nM: TGI [44]
1480 nM: TGI [51]
1940 nM: TGI [9]
3980 nM: TGI [26]
5210 nM: TGI [45]
2750 nM: TGI [48]
2550 nM: TGI [31]
2870 nM: TGI [6]
2070 nM: TGI [54]
3090 nM: TGI [42]
2640 nM: TGI [34]
2790 nM: TGI [58]
1680 nM: TGI [43]
7230 nM: TGI [4]
2920 nM: TGI [40]
2850 nM: TGI [30]
11700 nM: TGI [27]
2680 nM: TGI [21]

COc1cc2ncnc3c2cc1OCCCCCN(C)Cc1ccc(Br)cc1N3
2970 nM: TGI [43]
> 20600 nM: TGI [52]
2850 nM: TGI [46]
> 19900 nM: TGI [30]
356 nM: TGI [34]
3280 nM: TGI [22]
5340 nM: TGI [50]
> 20700 nM: TGI [45]
active: GI50 [4] 191 nM | GI50 [30] 263 nM | GI50 [34] 90.9 nM | GI50 [38] 352 nM | GI50 [42] 383 nM | GI50 [43] 287 nM | GI50 [46] 419 nM
> 100000 nM: TGI [1] | TGI [2] | TGI [3] | TGI [5] | TGI [6] | TGI [7] | TGI [8] | TGI [9] | TGI [10] | TGI [59] | TGI [11] | TGI [12] | TGI [13] | TGI [14] | TGI [16] | TGI [17] | TGI [18] | TGI [19] | TGI [20] | TGI [21] | TGI [23] | TGI [24] | TGI [25] | TGI [26] | TGI [27] | TGI [28] | TGI [29] | TGI [31] | TGI [32] | TGI [33] | TGI [35] | TGI [36] | TGI [37] | TGI [38] | TGI [39] | TGI [40] | TGI [42] | TGI [44] | TGI [47] | TGI [48] | TGI [49] | TGI [53] | TGI [54] | TGI [56] | TGI [57] | TGI [58]
> 22000 nM: TGI [60]
1460 nM: TGI [4]
5170 nM: TGI [55]
inactive: GI50 [1] 1100 nM | GI50 [2] 6270 nM | GI50 [3] 4020 nM | GI50 [5] > 100000 nM | GI50 [6] 1520 nM | GI50 [7] 3820 nM | GI50 [8] 3320 nM | GI50 [9] 5870 nM | GI50 [10] 1360 nM | GI50 [59] 3880 nM | GI50 [11] > 100000 nM | GI50 [12] 3950 nM | GI50 [13] 2390 nM | GI50 [14] > 27300 nM | GI50 [16] 2640 nM | GI50 [17] 3030 nM | GI50 [18] 4740 nM | GI50 [19] 3220 nM | GI50 [20] 7150 nM | GI50 [21] 8250 nM | GI50 [22] 1660 nM | GI50 [23] 5370 nM | GI50 [24] > 21100 nM | GI50 [25] 2160 nM | GI50 [26] 612 nM | GI50 [27] 3370 nM | GI50 [28] > 100000 nM | GI50 [29] 7470 nM | GI50 [31] 3920 nM | GI50 [32] 1840 nM | GI50 [33] 1070 nM | GI50 [35] 4580 nM | GI50 [36] 3320 nM | GI50 [37] 5700 nM | GI50 [39] 3330 nM | GI50 [40] 3020 nM | GI50 [44] 3670 nM | GI50 [45] 798 nM | GI50 [47] 7080 nM | GI50 [60] 2220 nM | GI50 [48] 4000 nM | GI50 [49] 2860 nM | GI50 [50] 643 nM | GI50 [51] 2150 nM | GI50 [52] 2580 nM | GI50 [53] > 100000 nM | GI50 [54] 3800 nM | GI50 [55] 1720 nM | GI50 [56] 4730 nM | GI50 [57] 1450 nM | GI50 [58] > 20900 nM

— PubChem BioAssay (NCI)
